Biological target: T1, SYK (Homo sapiens, UniProt P43405)
T1 construct: The SYK kinase domain (residues 356-635) is amplified via PCR; made in house; host or cells: Sf9 insect cells (baculovirus, pFastBac1)
Test: SYK inhibition: in vitro assay of SYK-mediated phosphorylation of FAM-labeled substrate (Caliper LC-3000)
Format: biochemical
Conditions: SYK kinase domain (residues 356-635); 2.4 nM SYK and 45 μM ATP, 3 μM 5FAM-KKKKEEIYFFFG-NH2, RT 60 min, pH 7.3; pIC50 = −log(IC50), IC50 molar
Experimental: The ability of compounds to inhibit SYK activity may be assessed using a variety of methods, including in vitro and in vivo assays. The following in vitro assay measures a test compound's ability to inhibit SYK-mediated phosphorylation of a FAM-labeled SYK-specific substrate (5FAM-KKKKEEIYFFFG-NH2).
SYK protein is prepared from cDNA encoding human spleen tyrosine kinase and is expressed in insect cells using a baculovirus expression vector. The cDNA (IMAGE: 3542895) is purchased from Open Biosystems. The SYK kinase domain (residues 356-635) is amplified via PCR and cloned into plasmid pFastBacl (Invitrogen) at BamHI/XbaI sites. Recombinant plasmid encoding Met-Ala-Lys-SYK(356-635)-HHHHHH is sequenced and transformed into E. coli DH10Bac strain. The recombinant bacmid DNA is isolated and transfected into Sf9 insect cells. Recombinant virus is harvested 72 h after transfection. High titer viral stock is prepared by infecting Sf9 cells at a multiplicity of infection (MOI) of approximately 0.01. A suspension of Sf9 cells (10 L) is infected with recombinant virus (MOI=5) and is incubated in a Wave Bioreactor (GE-Healthcare) for 48 h. The cells are harvested and stored at −80° C.
To purify the expressed protein, the frozen Sf9 cells (10 L) are broken into small (<1 cm) particles and suspended in a lysis buffer (300 mL) containing 20 mM Tris (pH 7.6), 0.25 mM TCEP, 100 mM NaCl, 5% glycerol and a protease inhibitor. The suspension is stirred at RT until completely thawed, lysed an additional 2-4 min on a rotary blade homogenizer, and then centrifuged at 4200 g for 1 h. Following centrifugation, the supernatant is poured through cheese cloth and combined with a nickel chelating resin (Probond Resin™, Invitrogen) which is pre-equilibrated in a wash buffer containing 10 mM Tris (pH 7.6), 0.25 mM TCEP, 300 mM NaCl, 5% glycerol, and 20 mM imidazole. The mixture is agitated for 3 h in a cold room and then centrifuged at 900 g for 10 min. The resin is dispersed in wash buffer (50 mL), centrifuged for 10 min at 900 g, re-dispersed in a small amount of wash buffer (5 mL), and then pour into a disposable Poly-Prep chromatography column, through which wash buffer is passed by gravity until no protein is observed in coomassie buffer (about 120 mL of wash buffer). An elution buffer (30 mL) containing 10 mM HEPES (pH 7.4), 150 mM NaCl, 10% glycerol, 5 mM DTT, and 400 mM imidazole is used to elute the SYK protein from the resin. The eluate is concentrated (5 mL) and further purified on a Superdex 200 column (1.2 mL/min for 160 min, 10 mM HEPES (pH 7.4), 10 mM NaCl, 10 mM MgCl, 0.1 mM EDTA, and 0.25 mM TCEP). The chromatographed fractions are run on SDS-PAGE and the requisite fractions are pooled and concentrated. Final delivery buffer is 10 mM HEPES (pH 7.4), 10 mM Methione, 150 mM NaCl, 10% glycerol, 5 mM DTT.
SYK inhibition is determined using a black 384 well plate format in buffer containing 50 mM HEPES, 10 mM NaCl, 10 mM MgCl2, 0.2 mM EDTA, 0.01% EDA (Brij®35), 1 mM DTT, and 0.1 mg/ml BSA at pH 7.3. Each test compound is prepared in DMSO using 2-fold serial dilutions for 11 data points, which are added to the buffer so that each dilution contains 3% DMSO. To each well is added 2 μL of 3 μM SFAM-KKKKEEIYFFFG-NH2 (in buffer), 2 μL of diluted test compound (3% DMSO in buffer), and 2 μL of 2.4 nM SYK and 45 μM ATP (in buffer). The reaction mixture is incubated at RT for 60 min, and quenched by adding 50 mM Hepes, 30 mM EDTA, 0.1% Triton X-100 (pH 7.3). To quantify the fluorescent-labeled substrate and product following reaction, the test plate is loaded on a Caliper LC-3000, which measures percent of conversion by microfluidic-based separation. Corresponding IC50 values are calculated by non-linear curve fitting of the compound concentrations and percent of inhibition to the standard IC50 equation and reported as pIC50, i.e., −log(IC50), where IC50 is molar concentration.

Compound	IC50
Cc1cc(-c2nc(N[C@@H]3CCCC[C@@H]3N)c(F)c3c2C(=O)NC3)sn1 [Example 42, 6-((1R,2S)-2-Aminocyclohexylamino)-7-fluoro-4-(3-methylisothiazol-5-yl)-1H-pyaolo[3,4-c]pyridin-3(2H)-one]	0.631 nM
N[C@H]1COCC[C@H]1Nc1nc(-c2cc3ccc(F)cc3s2)c2c(c1F)CNC2=O [Example 19, 6-((3R,4R)-3-Aminotetrahydro-2H-pyran-4-ylamino)-7-fluoro-4-(6-fluorobenzo[b]thiophen-2-yl)-1H-pyrrolo[3,4-c]pyridin-3(2H)-one]	0.158 nM
Cc1nn(C)c2sc(-c3nc(N[C@@H]4CCCC[C@@H]4N)c(F)c4c3C(=O)NC4)cc12 [Example 36, 6-((1R,2S)-2-Aminocyclohexylamino)-4-(1,3-dimethyl-1H-thieno[2,3-c]pyrazol-5-yl)-7-fluoro-1H-pyrrolo[3,4-c]pyridin-3(2H)-one]	0.126 nM
Cc1ccn2ncc(-c3nc(N[C@@H]4CCOC[C@@H]4N)c(F)c4c3C(=O)NC4)c2c1 [Example 58, 6-(((3R,4R)-3-Aminotetrahydro-2H-pyran-4-yl)amino)-7-fluoro-4-(5-methylpyrazolo[1,5-a]pyridin-3-yl)-1H-pyrrolo[3,4-c]pyridin-3 (2H)-one]	12.6 nM
N[C@H]1COCC[C@H]1Nc1nc(-c2ccc(F)s2)c2c(c1F)CNC2=O [Example 12, 6-((3R,4R)-3-Aminotetrahydro-2H-pyran-4-ylamino)-7-fluoro-4-(5-fluorothiophen-2-yl)-1H-pyrrolo[3,4-c]pyridin-3(2H)-one]	12.6 nM
N[C@H]1COCC[C@H]1Nc1nc(-c2cc(C(F)F)ns2)c2c(c1F)CNC2=O [Example 1, 6-((3R,4R)-3-Aminotetrahydro-2H-pyran-4-ylamino)-4-(3-(difluoromethyl)isothiazol-5-yl)-7-fluoro-1H-pyrrolo[3,4-c]pyridin-3(2H)-one]	50.1 nM
N[C@H]1COCC[C@H]1Nc1nc(-c2cc3cc(F)ccc3s2)c2c(c1F)CNC2=O [Example 7, 6-((3R,4R)-3-Aminotetrahydro-2H-pyran-4-ylamino)-7-fluoro-4-(5-fluorobenzo[b]thiophen-2-yl)-1H-pyrrolo[3,4-c]pyridin-3(2H)-one]	0.2 nM
N[C@H]1CCCC[C@H]1Nc1nc(CCc2ccccc2)c2c(c1F)CNC2=O [Example 47, 6-((1R,2S)-2-Aminocyclohexylamino)-7-fluoro-4-phenethyl-1H-pyrrolo[3,4-c]pyridin-3 (2H)-one]	100 nM
CCOC(=O)c1ccn2cc(-c3nc(N[C@@H]4CCOC[C@@H]4N)c(F)c4c3C(=O)NC4)cc2c1 [Example 39, Ethyl 2-(6-((3R,4R)-3-Aminotetrahydro-2H-pyran-4-ylamino)-7-fluoro-3-oxo-2,3-dihydro-1H-pyrrolo[3,4-c]pyridin-4-yl)indolizine-7-carboxylate]	2 nM
CCc1cc(-c2nc(N[C@@H]3CCOC[C@@H]3N)c(F)c3c2C(=O)NC3)sn1 [Example 2, 6-((3R,4R)-3-Aminotetrahydro-2H-pyran-4-ylamino)-4-(3-ethylisothiazol-5-yl)-7-fluoro-1H-pyrrolo[3,4-c]pyridin-3(2H)-one]	3.98 nM
N[C@H]1CCCC[C@H]1Nc1nc(-c2cc3cccnc3s2)c2c(c1F)CNC2=O [Example 14, 6-((1R,2S)-2-Aminocyclohexylamino)-7-fluoro-4-(thieno[2,3-b]pyridin-2-yl)-1H-pyrrolo[3,4-c]pyridin-3(2H)-one]	0.158 nM
N[C@H]1COCC[C@H]1Nc1nc(CCc2ccc(Cl)cc2)c2c(c1F)CNC2=O [Example 49, 6-((3R,4R)-3-Aminotetrahydro-2H-pyran-4-ylamino)-4-(4-chlorophenethyl)-7-fluoro-1H-pyrrolo[3,4-c]pyridin-3(2H)-one]	63.1 nM
N[C@H]1CCCC[C@H]1Nc1nc(-c2cc3cnccc3s2)c2c(c1F)CNC2=O [Example 18, 6-((1R,2S)-2-Aminocyclohexylamino)-7-fluoro-4-(thieno[3,2-c]pyridin-2-yl)-1H-pyrrolo[3,4-c]pyridin-3(2H)-one]	0.316 nM
N[C@H]1COCC[C@H]1Nc1nc(-c2ccns2)c2c(c1F)CNC2=O [Example 4, 6-((3R,4R)-3-Aminotetrahydro-2H-pyran-4-ylamino)-7-fluoro-4-(isothiazol-5-yl)-1H-pyrrolo[3,4-c]pyridin-3(2H)-one]	12.6 nM
N[C@H]1CCCC[C@H]1Nc1nc(-c2cc3n(c2)CCOC3)c2c(c1F)CNC2=O [Example 35, 6-((1R,2S)-2-Aminocyclohexylamino)-4-(3,4-dihydro-1H-pyrrolo[2,1-c][1,4]oxazin-7-yl)-7-fluoro-1H-pyrrolo[3,4-c]pyridin-3(2H)-one]	10 nM
C[C@H]1NC(=O)c2c(-c3cnn4ccc(F)cc34)nc(N[C@@H]3CCCC[C@@H]3N)c(F)c21 [Example 52, (R)-6-(((1R,2S)-2-Aminocyclohexyl)amino)-7-fluoro-4-(5-fluoropyrazolo[1,5-a]pyridin-3-yl)-1-methyl-1H-pyrrolo[3,4-c]pyridin-3(2H)-one]	39.8 nM
Cc1c2sc(-c3nc(N[C@@H]4CCCC[C@@H]4N)c(F)c4c3C(=O)NC4)cc2nn1C [Example 33, 6-((1R,2S)-2-Aminocyclohexylamino)-4-(2,3-dimethyl-2H-thieno[3,2-c]pyrazol-5-yl)-7-fluoro-1H-pyrrolo[3,4-c]pyridin-3(2H)-one]	0.631 nM
C[C@@H]1NC(=O)c2c(-c3cnn4ccc(F)cc34)nc(N[C@@H]3CCCC[C@@H]3N)c(F)c21 [Example 53, (S)-6-(((1R,2S)-2-Aminocyclohexyl)amino)-7-fluoro-4-(5-fluoropyrazolo[1,5-a]pyridin-3-yl)-1-methyl-1H-pyrrolo[3,4-c]pyridin-3(2H)-one]	398 nM
Cc1cc(-c2nc(N[C@@H]3CCOC[C@@H]3N)c(F)c3c2C(=O)N[C@H]3C)sn1 [Example 57, (S)-6-(((3R,4R)-3-Aminotetrahydro-2H-pyran-4-yl)amino)-7-fluoro-1-methyl-4-(3-methylisothiazol-5-yl)-1H-pyrrolo[3,4-c]pyridin-3(2H)-one]	100 nM
N[C@H]1CCCC[C@H]1Nc1nc(-c2cc3ccncc3s2)c2c(c1F)CNC2=O [Example 15, 6-((1R,2S)-2-Aminocyclohexylamino)-7-fluoro-4-(thieno[2,3-c]pyridin-2-yl)-1H-pyrrolo[3,4-c]pyridin-3(2H)-one]	0.158 nM
Cc1ccn2ncc(-c3nc(N[C@@H]4CCCC[C@@H]4N)c(F)c4c3C(=O)NC4)c2c1 [Example 59, 6-(((1R,2S)-2-Aminocyclohexyl)amino)-7-fluoro-4-(5-methylpyrazolo[1,5-a]pyridin-3-yl)-1H-pyrrolo[3,4-c]pyridin-3(2H)-one]	2.51 nM
N[C@H]1CCCC[C@H]1Nc1nc(C#Cc2ccccc2)c2c(c1F)CNC2=O [Example 43, 6-((1R,2S)-2-Aminocyclohexylamino)-7-fluoro-4-(phenylethynyl)-1H-pyrrolo[3,4-c]pyridin-3(2H)-one]	63.1 nM
